Laboratory results reported in patent publication EP3922268B1, “NEW DERIVATIVES OBTAINED FROM HYALURONIC ACID AND CARNOSINE” (Fidia Farmaceutici S.p.A., priority 2020, dated 2023).

Tested on: HFF1 cell line (consisting of fibroblasts derived from human skin)
Test: MTT cell viability assay
Assay type: cell-based
Settings: HFF1 cells, 5 hours incubation; carnosine alone 0.136 mM
Protocol: Trial design. The cell response of conjugate (1) in terms of cell viability was determined in vitro by performing the MTT assay (Mosmann T, J Immunol Methods 1983; 65:55-63) on the HFF1 cell line (consisting of fibroblasts derived from human skin). The cells were used at passages 20-23, cultured at 37°C and 5% CO2 in Dulbecco's Modified Eagle Medium (DMEM) with integrated glucose and added with FBS (1%). To conduct the MTT assay, the cells were plated in 96-well multiwell plates (7000 cells per well) in DMEM culture medium with integrated glucose and added with 1% FBS; after 48 hours they were treated with control medium, or with medium alternatively containing carnosine, conjugate (1) prepared as described in EXAMPLE 1, or complexes of conjugate (1) with Cu(II), for 5 hours of incubation at 37°C and 5% CO2. Each treatment was performed in triplicate. […] After removal of the liquid from each well and addition of DMSO (100 µl), the absorbance of the formazan salt (blue) produced by the cleavage reaction of the tetrazolium ring of MTT (yellow) by the mitochondrial enzyme succinate dehydrogenase present in the viable cells only was measured in a multiplate reader (Synergy™ 2 Multi-Mode Microplate Reader) at the wavelength of 570 nm. […]

NCCC(=O)N[C@@H](Cc1c[nH]cn1)C(=O)O [carnosine, β-alanyl-L-histidine]
increase in cell viability: did not lead to any increase in cell viability
